From patent publication US20080300317A1 (Chevron U.S.A. Inc., priority 2007, published 2008) come the findings set out here.

Where two headings read alike, the source gives them in different places. Some results are limits rather than exact numbers.

For data set [1], the system named is influenza A/PR/8/34 (H1N1). Put plainly: microbe, parasite or virus in culture. Type of data set: cell-based, influenza A virus.
In data set [2] the test system is influenza A/HK/8/68 (H3N2). In words: microbe, parasite or virus in culture. Type of data set: cell-based, influenza A virus.
The test system of another data set is influenza B/GL/1739/54. In words: Anti-viral EC50 experiment, survival of virus-infected Vero cells. As to conditions: for EC50 Virus B/GL/1739/54: Table 3, Vero cells, n at least 2, No effic. = no efficacy measured; for EC50: Influenza B virus, Vero, Table 4, controls, cutoff control values, determined over only 2 experiments. The data set is classed as cell-based, influenza B virus. How it is done:
The following MDT compounds were tested: MDT-1, MDT-3, MDT-10, MDT-11, MDT-12, MDT-13, MDT-14, MDT-15, MDT-16, MDT-22, MDT-23, MDT-24, MDT-26, MDT-27, MDT-28, MDT-29, MDT-30, MDT-31, MDT-32, MDT-33, MDT-34, MDT-40, MDT-41, MDT-42, MDT-43, MDT-44, MDT-45, MDT-46, MDT-47, MDT-48, MDT-49, MDT-50, MDT-51, MDT-53, MDT-56, MDT-57, MDT-58, MDT-59, MDT-60, MDT-61, MDT-62, MDT-63, MDT-65, MDT-67, MDT-68 and MDT-69. […] Amantadine and rimantadine are both adamantane derivatives.
Compound diluents were dimethyl sulfoxide (DMSO), Molecusol ((2-hydroxypropyl)-β-cyclodextrin; Sigma H107), propylene-glycol (PG) and deionized water. Diluents were used singly or in combination as necessary to dissolve the compounds.
The medium used for the cell lines was 1× Minimal Essential Medium (MEM) (Invitrogen) supplemented with 1% L-glutamine, 1% penicillin-streptomycin, 0.125% bovine serum albumin (BSA), and 1 μg/ml of TPCK-trypsin.
The viruses tested were influenza A/PR/8/34 (H1N1), influenza A/WS/33 (H1N1), influenza A/HK/8/68 (H3N2) and influenza B/GL/1739/54 (no H, N subtyping). Cells used were the Vero line of African green monkey, normal kidney cells. All viruses and cells were obtained from The American Type Culture Collection (Rockville, Md.). Cells were grown in an atmosphere of 4-6% CO2 at 34-38° C. in MEM with 5% fetal bovine serum (FBS), 2 mM glutamine, and 1% penicillin-streptomycin solution to maintain exponential growth.
The Vero cells were plated on Day 0. On Day 1, cells were infected with virus and incubated with various concentrations of test compounds. […] On Day 4 the cells were fixed and stained. […] Cell survival due to exposure to test compound was indicative of anti-viral activity.

A further data set has as its system influenza A/WS/33 (H1N1). Put plainly: microbe, parasite or virus in culture. The data set is classed as cell-based, influenza A virus.
Setting [3] is: Table 3, Vero cells, H1N1, n at least 2, No effic. = no efficacy measured, read-out: EC50 Virus A/PR/8/34.
The mark [4] stands for this setting: Table 3, MDT compounds, No Tox. = no cytotoxicity measured.
The mark [5] stands for this setting: Table 3, Vero cells, H3N2, n at least 2, No effic. = no efficacy measured.
The mark [6] stands for this setting: Table 3, Vero cells, H1N1, n at least 2, No effic. = no efficacy measured, read-out: EC50 Virus A/WS/33.
Setting [7] is: Table 3, Vero cells, H1N1, n at least 2, No effic. = no efficacy measured.
Where [8] appears, read: Table 3, Vero cells, H3N2, n at least 2, No effic. = no efficacy measured, read-out: EC50 Virus A/HK/8/68.
[9] abbreviates: Influenza A virus, Vero, Table 4, controls, cutoff control values compiled through many experiments.
Where [10] appears, read: Table 4, controls, No Tox = no cytotoxicity measured.
Setting [11] is: Influenza A virus, H3N2, Vero, Table 4, controls, cutoff control values compiled through many experiments.
The mark [12] stands for this setting: Influenza A virus, H1N1, Vero, Table 4, controls, cutoff control values compiled through many experiments.

On to `CC12CC3CC4C1CC1CC2C(N)(C3)C4(C)C1` (centres unmarked) [MDT-43, 1,6-dimethyl-2-aminodiamantane], for which the EC50 came to 60 nM in data set [1] (setting [3]) and 820 nM in the data set on influenza A/WS/33 (H1N1) (setting [6]). Besides, in the data set with Vero cells (setting [4]), the Cytotoxicity is given as 10 or above μM. In data set [2] (setting [5]), the “EC50 Virus A/HK/8/68” value was “No Effic”. The “EC50 Virus B/GL/1739/54” value with influenza B/GL/1739/54 is “No Effic”.

With `CC12CC3CC4C1CC1CC2C(O)(C3)C4(C)C1` (centres unmarked) [MDT-44, 1,6-dimethyl-2-hydroxydiamantane], the EC50 in data set [1] (setting [3]) is 50 nM; in the data set with influenza A/WS/33 (H1N1) (setting [6]), 610 nM. Also, the Cytotoxicity result in the data set on Vero cells (setting [4]) is “No Tox”. In addition, the “EC50 Virus A/HK/8/68” value in data set [2] (setting [5]) is on record as “No Effic”. In addition, the “EC50 Virus B/GL/1739/54” value in the data set with influenza B/GL/1739/54 is “No Effic”.

Take `CC12CC3CC4C1CC1(O)CC2C(C3)C4(C)C1` [MDT-45, 1,6-dimethyl-4-hydroxydiamantane]: the EC50 amounted to 20 nM in data set [1] (setting [3]) and 300 nM in the data set with influenza A/WS/33 (H1N1) (setting [6]). The Cytotoxicity entry with Vero cells (setting [4]) is given as “No Tox”. Moreover, the “EC50 Virus A/HK/8/68” value in data set [2] (setting [5]) is listed as “No Effic”. The “EC50 Virus B/GL/1739/54” value in the data set with influenza B/GL/1739/54 is recorded as “No Effic”.

As for `CC12CC3CC4C1CC1(C(=O)O)CC2C(C3)C4(C)C1` [MDT-46, 1,6-dimethyl-4-diamantanecarboxylic acid], the EC50 (in data set [1] (setting [3]); in the data set on influenza A/WS/33 (H1N1) (setting [6])) was below 125 nM in each case. In the data set with Vero cells (setting [4]), the Cytotoxicity result is recorded as “No Tox”. Moreover, in data set [2] (setting [5]), the “EC50 Virus A/HK/8/68” value is reported as “No Effic”. In addition, the “EC50 Virus B/GL/1739/54” value in the data set on influenza B/GL/1739/54 is given as “No Effic”.

For `CC12CC3C4CC5(C)CC3C(C1)C(O)(C5)C4C2` [MDT-47, 4,9-dimethyl-1-hydroxydiamantane], the EC50 in data set [1] (setting [3]) was below 125 nM; in the data set with influenza A/WS/33 (H1N1) (setting [6]), 460 nM. The Cytotoxicity entry with Vero cells (setting [4]) was “No Tox”. Besides, the “EC50 Virus A/HK/8/68” value in data set [2] (setting [5]) was “No Effic”. Further, the “EC50 Virus B/GL/1739/54” value with influenza B/GL/1739/54 is “No Effic”.

As to `CC(N)C12CC3CC4C5CC(CC41)CC2C5C3` (centres unmarked) [MDT-57, 1-(1-aminoethyl)diamantane], in data set [1] (setting [7]), the “EC50 Virus A/PR/8/34” value is “No Effic”. Further, the Cytotoxicity with Vero cells (setting [4]) is 50 or above μM. In addition, the EC50 in data set [2] (setting [8]) came to 160 nM. For the same compound, the “EC50 Virus B/GL/1739/54” value in the data set on influenza B/GL/1739/54 was “No Effic”. In addition, the “EC50 Virus A/WS/33” value with influenza A/WS/33 (H1N1) (setting [7]) is “No Effic”.

For the compound `NCC12CC3C4CC5CC3C(C1)C(C5)C4C2` [MDT-61, 4-diamantanemethylamine], in data set [1] (setting [7]), the “EC50 Virus A/PR/8/34” value was “No Effic”. The Cytotoxicity in the data set on Vero cells (setting [4]) is on record as 50 or above μM. The EC50 in data set [2] (setting [8]) is 100 nM. Moreover, in the data set on influenza B/GL/1739/54, the “EC50 Virus B/GL/1739/54” value is reported as “No Effic”. Moreover, the “EC50 Virus A/WS/33” value in the data set with influenza A/WS/33 (H1N1) (setting [7]) was “No Effic”.

For the compound `CC(N)C12CC3C4CC5CC3C(C1)C(C5)C4C2` (centres unmarked) [MDT-62, 4-(1-aminoethyl)diamantane], the figures for the EC50 (in data set [1] (setting [3]); in the data set on influenza A/WS/33 (H1N1) (setting [6])) were 280 nM and 1940 nM, respectively. Moreover, the Cytotoxicity in the data set with Vero cells (setting [4]) is listed as 50 or above μM. Besides, the “EC50 Virus A/HK/8/68” value in data set [2] (setting [5]) is recorded as “No Effic”. Also, in the data set with influenza B/GL/1739/54, the “EC50 Virus B/GL/1739/54” value was “No Effic”.

As to `CCOC(=O)C1=C[C@@H](OC(CC)CC)[C@H](NC(C)=O)[C@@H](N)C1` [Oseltamivir, reference compound], the EC50 in data set [1] (setting [9]) was at least 10000 nM; in data set [2] (setting [11]), at most 1000 nM; with influenza B/GL/1739/54, at least 15000 nM; in the data set with influenza A/WS/33 (H1N1) (setting [12]) it was at least 5000 nM. In the data set with Vero cells (setting [10]), the Cytotoxicity entry was “No Tox”.

As to `CC(N)C12CC3CC(CC(C3)C1)C2.Cl` (stereo not drawn) [Rimantadine, alpha-methyl-1-adamantanemethylamine hydrochloride, reference compound], the EC50 was at least 1000 nM in data set [1] (setting [9]), at most 1000 nM in data set [2] (setting [11]), at least 50000 nM with influenza B/GL/1739/54 and at least 50000 nM in the data set with influenza A/WS/33 (H1N1) (setting [12]). In addition, the Cytotoxicity result in the data set on Vero cells (setting [10]) is listed as “No Tox”.
